US5434136A, “Treatment of motility disorders with a GNRH analog” (priority 1992, dated 1995)
Like-named read-outs stand apart in the source and are kept apart here.

Legend:
[1] = tested on: functional bowel disorders; format: in vivo, human
Text: The symptoms of the two patients with GMD were abdominal pain located in the right upper quadrant and epigastrium, daily nausea, and intermittent vomiting exacerbated by eating and by the luteal phase of the menstrual cycle. The two patients with IIHVN had abdominal pain, nausea, and intermittent vomiting, and also had urinary tract involvement consisting of pain and a decrease in urination. The fifth patient had Roux-en-Y syndrome (defined as epigastric-to-right-upper-quadrant pain, nausea, and vomiting increased by eating) after surgical construction of a gastro-jejunal Roux-en-Y anastomosis. The mean duration of these symptoms was eight years (Table 1). All subjects had undergone extensive blood testing, several upper gastrointestinal x-ray series, barium enemas, esophagogastroduodenoscopy, endoscopic retrograde cholangiopancreatography, gastric emptying tests with radiolabeled meal, ultrasound of the abdomen, computerized axial tomography of the abdomen, and many other tests. The results of all tests were normal, except for prolonged gastric emptying in the patient with the Roux-en-Y Syndrome. Because of their intractable clinical problem, these patients were included in the test protocol with leuprolide acetate. Protocol: The symptoms of each patient were first assessed, and their tests evaluated. Each patient kept a daily symptom diary. Leuprolide acetate was obtained by prescription as Lupron (TAP pharmaceuticals, Abbott Labs, North Chicago, Ill.). One multi-use vial of Lupron comprised of […] Leuprolide Acetate. A daily dose of 0.5 mg ([…]) was self-administered by subcutaneous injection, for a period of three months. Each patient was examined at 0, 1 and 3 months of treatment. After the third month, leuprolide was continued as previously, and estrogen (0.625 mg orally) and calcium (1000 mg orally) were also administered. At the end of the sixth month, a two week withdrawal period from leuprolide acetate ensued. During this period a 10 mg oral dose of progesterone was given to pre-menopausal patients, to assess recurrence of symptoms and to induce menses. Post-menopausal women were not treated with progesterone during the two week withdrawal period. This procedure was then continued for an additional six months, with drug withdrawal and progesterone given every three months to induce a menstrual cycle. Serum estradiol, progesterone, FSH, and LH were quantitated by radioimmunoassay prior to the initiation of leuprolide treatment, and at three months post treatment initiation. The procedure of example 1 was followed with additional patients. […] One patient listed as a failure elected to withdraw from the program after four weeks of treatment. One patient after recovering from the symptoms of their autonomic neuropathy expired from a massive myocardial infarction (Responded--expired). These patients were treated with Leuprolide acetate following the protocol established in Example 1.

[2] = tested on: functional bowel disease (IIHVN), ovaries removed; test: Effective dose of leuprolide acetate in patients having previous ovariectomy; format: in vivo, human
Text: Two patients discussed in Example 1 were women who had undergone surgery for removal of their ovaries. The first patient, Number 3, had undergone this surgery approximately two years prior to beginning Leuprolide acetate treatment. The second patient, Number 4, underwent ovariectomy 18 months […] beginning treatment with Leuprolide Acetate. In both cases, the effective dose of leuprolide acetate was higher than the effective dose required by patients who had not had ovaries removed.

With `CCNC(=O)[C@@H]1CCCN1C(=O)[C@H](CCCNC(=N)N)NC(=O)[C@H](CC(C)C)NC(=O)[C@@H](CC(C)C)NC(=O)[C@H](Cc1ccc(O)cc1)NC(=O)[C@H](CO)NC(=O)[C@H](Cc1c[nH]c2ccccc12)NC(=O)[C@H](Cc1c[nH]cn1)NC(=O)[C@@H]1CCC(=O)N1` [Leuprolide acetate, leuprolide acetate] as the molecule, how does the “Duration of therapy until symptom free” value ([1]; Patient 7) read?
Its value is at most 8 weeks.

What about the Response ([1]; Patient 7, Pelvic Floor Dysfunction) of the same molecule?
Its Response is “symptom free”.

And the Response ([1]; Patient 7, Pelvic Floor Dysfunction, listed as leuprolide)?
Its Response is “Responded”.

And the Response ([1]; Patient 8, Chronic Intestinal Pseudo Obstruction, listed as leuprolide)?
The Response was “Responded”.

What about the Response ([1]; Patient 8, Chronic Intestinal Pseudo Obstruction, listed as leuprolide acetate) of the same molecule?
The Response was “does not chronically experience severe symptoms”.

And the “Hospital admissions since therapy was begun” value ([1]; Patient 8, before: at least one week per month in hospital)?
The value was “no hospital admissions”.

What about the Response ([1]; Patient 9, Roux-en-Y-Syndrome) of the same molecule?
The Response was “Responded”.

And the Response ([1]; Patient 10, Roux-en-Y-Syndrome, withdrew)?
Its Response is “Failure”.

And the Response ([1]; Patient 11, Chronic Intestinal Pseudo Obstruction, side effects)?
Its Response is “Failure”.

What about the Response ([1]; Patient 12, Roux-en-Y-Syndrome, expired) of the same molecule?
Its Response is “Failure”.

And the “Need for parental alimentation for weight control” value ([1]; Patient 13)?
The value was “no longer requires parental alimentation”.

And the Urination ([1]; Patient 13)?
Its Urination is “improved”.

What about the Response ([1]; Patient 13, Idiopathic Intestinal Hollow Visceral Myopathy/Neuropathy, protocol of example 1) of the same molecule?
Its Response is “improved dramatically”.

And the Response ([1]; Patient 13, Idiopathic Intestinal Hollow Visceral Myopathy/Neuropathy, protocol of example 1, listed as leuprolide)?
Its Response is “Responded”.

What about the Response ([1]; Patient 14, Pelvic Floor Dysfunction) of the same molecule?
Its Response is “Failure”.

And the “Need for parental supplementation” value ([1]; Patient 15)?
Its value is “requires no parental supplementation”.

What about the Response ([1]; Patient 15, Chronic Intestinal Pseudo Obstruction) of the same molecule?
Its Response is “steadily improved”.

What about the Response ([1]; Patient 15, Chronic Intestinal Pseudo Obstruction, listed as leuprolide) of the same molecule?
The Response was “Responded”.

What about the Response ([1]; Patient 16, Roux-en-Y-Syndrome) of the same molecule?
Its Response is “relieved”.

And the Response ([1]; Patient 16, Roux-en-Y-Syndrome, listed as leuprolide)?
Its Response is “Responded”.

And the “Body weight maintained under therapy” value ([1]; Patient 16, weight before 96 pounds)?
Its value is 115-118 pounds.

What about the “Theophylline requirement for lung disease” value ([1]; Patient 17) of the same molecule?
Its value is “smaller dose of Theophylline is now required”.

And the Response ([1]; Patient 17, Gastrointestinal Motor Dysfunction, protocol of example 1)?
The Response was “abated”.

And the Response ([1]; Patient 17, Gastrointestinal Motor Dysfunction, protocol of example 1, listed as leuprolide)?
The Response was “Responded”.

And the Pulmonary function tests ([1]; Patient 17, chronic obstructive lung disease)?
The Pulmonary function tests was “dramatic improvement”.

And the Response ([1]; Patient 18, Idiopathic Intestinal Hollow Visceral Myopathy/Neuropathy, protocol of example 1)?
The Response was “all of their symptoms have improved except for their obstipation”.

What about the Response ([1]; Patient 18, Idiopathic Intestinal Hollow Visceral Myopathy/Neuropathy, protocol of example 1, listed as leuprolide) of the same molecule?
Its Response is “Responded”.

And the “Duration of therapy after which all symptoms had disappeared” value ([1]; Patient 19)?
The value was 6 weeks.

And the Response ([1]; Patient 19, Gastrointestinal Motor Dysfunction, protocol of example 1, listed as leuprolide)?
Its Response is “Responded”.

What about the “Course after the drug was discontinued” value ([1]; Patient 19, discontinued after six months of treatment) of the same molecule?
The value was “no recurrent disease”.

And the Response ([1]; Patient 20, Gastrointestinal Motor Dysfunction, protocol of example 1)?
Its Response is “symptom-free”.

What about the Response ([1]; Patient 20, Gastrointestinal Motor Dysfunction, protocol of example 1, listed as leuprolide) of the same molecule?
The Response was “Responded”.

What about the Response ([1]; Patient 21, Gastrointestinal Motor Dysfunction) of the same molecule?
Its Response is “Responded”.

And the Swallowing and eating ([1]; Patient 22)?
Its Swallowing and eating is “now able to swallow and eat”.

What about the Response ([1]; Patient 22, Gastrointestinal Motor Dysfunction, response seen after three weeks of therapy) of the same molecule?
Its Response is “dramatic response”.

And the Response ([1]; Patient 22, Gastrointestinal Motor Dysfunction, response seen after three weeks of therapy, listed as leuprolide)?
The Response was “Responded”.

What about the “Need of opiates for pain” value ([1]; Patient 23) of the same molecule?
Its value is “did not require opiates for pain”.

And the Response ([1]; Patient 23, Roux-en-Y-Syndrome)?
The Response was “Responded”.

And the Response ([1]; Patient 23, Roux-en-Y-Syndrome, listed as Lupron)?
Its Response is “symptom free”.

And the “Side effects leading to withdrawal from treatment” value ([1]; human, in vivo)?
Its value is “bone pain”.

What about the “Number of patients who failed to respond” value ([1]; of the twenty-six treated to date) of the same molecule?
Its value is “Four”.

And the “Response of the majority of patients” value ([1]; twenty-six patients treated to date)?
Its value is “full recovery”.

And the “Daily dose needed to overcome symptoms” value ([2]; Patient 3, ovaries removed, initially 0.5 mg)?
The value was 2.0 mg.

And the “Effective daily dose that relieved symptoms” value ([2]; Patient 4, post-ovariectomy)?
The value was 2.0 mg.

And the “Sufficiency of daily dose of 0.5 mg” value ([2]; Patient 4, post-ovariectomy)?
The value was “not sufficient”.

What about the “Symptoms at daily dose of 0.5 mg” value ([2]; Patient 4, prior to the removal of their ovaries) of the same molecule?
The value was “symptom free”.

And the “Effective dose compared with patients who had not had ovaries removed” value ([2]; Patients 3 and 4)?
The value was “higher”.
